Source: patent US20210309658A1, “ARYL COMPOUNDS FOR THE TREATMENT AND PROPHYLAXIS OF BACTERIAL INFECTION” (Hoffmann-La Roche Inc., priority 2018, published 2021)
Converted amounts (≈) assume the structure as drawn.

Assays:
Format in all cases: cell-based
[1] = system: E. coli (BW25113); test: 50% growth inhibitory concentration (IC50) determination assay, E. coli; conditions: Escherichia coli, BW25113; growth inhibition, Iso-Sensitest broth, OD 600 nm over 16 h; read-out: IC50 (μM) E. coli K12 BW25113
Method: (§1) The in vitro antimicrobial activity of the compounds against E. coli (BW25113, obtained from Coli Genetic Stock Center, #7636) and K. pneumoniae (ATCC10031) was determined according to the following procedure:
(§2) The assay used a 10-points Iso-Sensitest broth medium to measure quantitatively the in vitro activity of the compounds against E. coli BW25113 and K. pneumoniae ATCC 10031.
(§3) Stock compounds in DMSO were serially two-fold diluted (range from 50 to 0.097 μM final concentration) in 384 wells microtiter plates and inoculated with 49 μL the bacterial suspension in Iso-Sensitest broth medium to have a final cell concentration of ˜5×10^5 CFU/mL in a final volume/well of 50 μL/well. Microtiter plates were incubated at 35±2° C.
(§4) Bacterial cell growth was determined with the measurement of optical density at λ=600 nm each 20 minutes over a time course of 16 h.
(§5) Growth inhibition was calculated during the logarithmic growth of the bacterial cells with determination of the concentration inhibiting 50% (IC50) of the growth.

[2] = system: K. pneumoniae (ATCC10031); test: 50% growth inhibitory concentration (IC50) determination assay, K. pneumoniae; conditions: Klebsiella pneumoniae, ATCC10031; growth inhibition, Iso-Sensitest broth, OD 600 nm over 16 h; * = detection limit; read-out: IC50 (μM) K. pneumoniae ATCC10031
Method: as §1, §2, §3, §4, §5

[3] = Cytotoxicity assay (HepG2, CellTiter-Blue); conditions: human; HepG2 cells, 3 days treatment; * = detection limit
Method: The cytotoxicity of compounds of present invention was assessed by HepG2 assay. HepG2 cells (ATCC HB-8065™) were seeded into 96-well plates (1.2×10^4 cells per well) and treated with compounds for 3 days, cell viability was measured at day 3 post compound treatment using the CellTiter-Blue® Cell Viability Assay (Promega, Cat. No. G8082). 20 μL of Cell titer blue buffer were added to each well of the cells, incubated for 3 hours at 37° C., and the fluorescence value was measured by a plate reader (Molecular Device SpectraMax M2). The CC50 value of each compound is plotted with GraphPad Prism using four parameter logistic equation.

[4] = system: E. coli (ATCC 25922); test: Minimal Inhibitory Concentration (MIC) assay; conditions: Escherichia coli, ATCC25922; CAMHB, 20 hours at 35° C.; read-out: MIC (μg/mL) E. coli ATCC 25922
Method: The in vitro potency of compounds to inhibit E. coli (ATCC 25922) growth was assessed by MIC (Minimal Inhibitory Concentration) assay. Samples were prepared from 10 mM DMSO stock solutions. After serial 2-fold dilution in DMSO in a master plate (Greiner, Cat No: 651201), 180 μL sterile distilled water was added to 20 μL each aliquot of the samples. Then 10 μL diluted compounds were transferred into a new assay plate (Costar, 3599).
The growth medium […] Mueller Hinton Broth (CAMHB) was prepared by adding the 20 mg per liter CaCl2 and 20 mg per liter MgCl2 into the MHB medium (Jianglai Company, sterilized).
Vials of each of the test microorganisms were maintained frozen in the vapor phase of a liquid nitrogen freezer. Took out the bacteria E. coli ATCC 25922 (KWIKSTIK, 0335K) from liquid nitrogen freezer, thawed it in room temperature, and diluted the bacterial in the CAMHB medium to achieve a final inoculum of 5×10^5 CFU/mL, 90 μL CAMHB with bacteria was dispensed to the assay plate and pipetted 5 times.
Then the assay plates were incubated for 20 hours at 35° C. in ambient air. Following incubation, the MIC (μg/mL), the lowest concentration of drug that inhibits visible growth of the microorganism was read and recorded throw the microscope.

**Q.** What does the source list for `CCNc1cc(F)cc2c1[nH]c1ncc(-c3cncc(N)c3)c(-n3ccc(C(F)(F)F)n3)c12` [Example 1.37, 3-(5-Amino-3-pyridyl)-N-ethyl-6-fluoro-4-[3-(trifluoromethyl)pyrazol-1-yl]-9H-pyrido[2,3-b]indol-8-amine]?
**A.** IC50 [1]: 1.32 µM; IC50 [2]: ≤ 0.098 µM; CC50 at 3 days [3]: 11100 nM

**Q.** For `CCNc1cc(F)cc2c1[nH]c1ncc(-c3cnc(C(N)=O)nc3)c(-n3ccc(C(F)(F)F)n3)c12` [Example 3.04, 5-[8-(Ethylamino)-6-fluoro-4-[3-(trifluoromethyl)pyrazol-1-yl]-9H-pyrido[2,3-b]indol-3-yl]pyrimidine-2-carboxamide], which IC50 [1] is on record?
**A.** 0.204 µM

**Q.** And the IC50 [2]?
**A.** ≤ 0.098 µM

**Q.** What about the MIC [4] of the same compound?
**A.** 0.142 µg/mL (≈ 0.293 µM)

**Q.** What about the CC50 at 3 days [3] of the same compound?
**A.** 20900 nM

**Q.** Which IC50 [1] does the source give for `CCNc1cc(F)cc2c1[nH]c1ncc(-c3cncc(C(=O)NOC)c3)c(-n3ccc(C(F)(F)F)n3)c12` [Example 3.03, 5-[8-(Ethylamino)-6-fluoro-4-[3-(trifluoromethyl)pyrazol-1-yl]-9H-pyrido[2,3-b]indol-3-yl]-N-methoxy-pyridine-3-carboxamide] here?
**A.** 0.775 µM

**Q.** What about the IC50 [2] of the same compound?
**A.** ≤ 0.098 µM

**Q.** And the CC50 at 3 days [3]?
**A.** 13000 nM

**Q.** For `CCNc1cc(F)cc2c1[nH]c1ncc(-c3cnc(OCC(C)(C)C(=O)O)nc3)c(-n3ccc(C(F)(F)F)n3)c12` [Example 2.03, 3-[5-[8-(Ethylamino)-6-fluoro-4-[3-(trifluoromethyl)pyrazol-1-yl]-9H-pyrido[2,3-b]indol-3-yl]pyrimidin-2-yl]oxy-2,2-dimethyl-propanoic acid], which MIC [4] is on record?
**A.** 0.653 µg/mL (≈ 1.17 µM)

**Q.** And the CC50 at 3 days [3]?
**A.** 20700 nM

**Q.** With `CCNc1cc(F)cc2c1[nH]c1ncc(-c3cnc(C)nc3)c(-n3ccc(C(F)(F)F)n3)c12` [Example 1.50] as the compound, how does the IC50 [1] read?
**A.** 0.422 µM

**Q.** And the IC50 [2]?
**A.** 0.098 µM

**Q.** What about the MIC [4] of the same compound?
**A.** 0.534 µg/mL (≈ 1.17 µM)

**Q.** Which CC50 at 3 days [3] does the source give for `CCNc1cc(F)cc2c1[nH]c1ncc(-c3cnc(OC)nc3)c(-n3ncc4c3CNC4)c12` [Example 1.21, 4-(5,6-Dihydro-4H-pyrrolo[3,4-c]pyrazol-1-yl)-N-ethyl-6-fluoro-3-(2-methoxypyrimidin-5-yl)-9H-pyrido[2,3-b]indol-8-amine] here?
**A.** 30500 nM

**Q.** Which IC50 [1] does the source give for `CCNc1cc(F)cc2c1[nH]c1ncc(-c3cnc(C(C)O)nc3)c(-n3ccc(C(F)(F)F)n3)c12` (stereo not shown) [Example 1.54, 1-[5-[8-(ethylamino)-6-fluoro-4-[3-(trifluoromethyl)pyrazol-1-yl]-9H-pyrido[2,3-b]indol-3-yl]pyrimidin-2-yl]ethanol] here?
**A.** 1.12 µM

**Q.** What about the IC50 [2] of the same compound?
**A.** 0.111 µM

**Q.** And the MIC [4]?
**A.** 0.284 µg/mL (≈ 0.585 µM)

**Q.** And the CC50 at 3 days [3]?
**A.** 12400 nM

**Q.** What does the source list for `CCNc1cc(F)cc2c1[nH]c1ncc(-c3cncnc3)c(-n3ccc(C(F)(F)F)n3)c12` [Example 1.12, N-Ethyl-6-fluoro-3-pyrimidin-5-yl-4-[3-(trifluoromethyl)pyrazol-1-yl]-9H-pyrido[2,3-b]indol-8-amine]?
**A.** IC50 [1]: 0.536 µM; IC50 [2]: ≤ 0.098 µM; MIC [4]: 0.259 µg/mL (≈ 0.587 µM)

**Q.** Which MIC [4] does the source give for `CCNc1cc(F)cc2c1[nH]c1ncc(-c3cnc(OC)nc3)c(-n3nc(C(F)(F)F)c4c3CNC4)c12` [Example 1.35, N-Ethyl-6-fluoro-3-(2-methoxypyrimidin-5-yl)-4-[3-(trifluoromethyl)-5,6-dihydro-4H-pyrrolo[3,4-c]pyrazol-1-yl]-9H-pyrido[2,3-b]indol-8-amine] here?
**A.** 0.601 µg/mL (≈ 1.17 µM)

**Q.** And the CC50 at 3 days [3]?
**A.** 58000 nM

**Q.** With `CCNc1cc(F)c(F)c2c1[nH]c1ncc(-c3cnc(OC)nc3)c(-n3ccc(C(F)(F)F)n3)c12` [Example 1.29, N-Ethyl-5,6-difluoro-3-(2-methoxypyrimidin-5-yl)-4-[3-(trifluoromethyl)pyrazol-1-yl]-9H-pyrido[2,3-b]indol-8-amine] as the compound, how does the IC50 [1] read?
**A.** 1.05 µM

**Q.** What about the IC50 [2] of the same compound?
**A.** 0.175 µM

**Q.** What about the MIC [4] of the same compound?
**A.** 0.354 µg/mL (≈ 0.723 µM)

**Q.** What does the source list for `CCNc1cc(F)cc2c1[nH]c1ncc(-c3cnc4ccnn4c3)c(-n3ccc(C(F)(F)F)n3)c12` [Example 1.19, N-Ethyl-6-fluoro-3-pyrazolo[1,5-a]pyrimidin-6-yl-4-[3-(trifluoromethyl)pyrazol-1-yl]-9H-pyrido[2,3-b]indol-8-amine]?
**A.** IC50 [1]: 0.739 µM; IC50 [2]: 0.196 µM; MIC [4]: 0.281 µg/mL (≈ 0.585 µM)

**Q.** For `CCNc1cc(F)cc2c1[nH]c1ncc(-c3cncc(C#N)c3)c(-n3nc(C(F)(F)F)c4c3CNC4)c12` [Example 1.34, 5-[8-(Ethylamino)-6-fluoro-4-[3-(trifluoromethyl)-5,6-dihydro-4H-pyrrolo[3,4-c]pyrazol-1-yl]-9H-pyrido[2,3-b]indol-3-yl]pyridine-3-carbonitrile], which IC50 [1] is on record?
**A.** 2 µM

**Q.** What about the IC50 [2] of the same compound?
**A.** ≤ 0.098 µM

**Q.** And the MIC [4]?
**A.** 0.727 µg/mL (≈ 1.44 µM)

**Q.** What about the CC50 at 3 days [3] of the same compound?
**A.** 14100 nM

**Q.** Which results are given for `CCNc1cc(F)cc2c1[nH]c1ncc(-c3cncc(C(=O)NC)c3)c(-n3ccc(C(F)(F)F)n3)c12` [Example 1.43, 5-[8-(Ethylamino)-6-fluoro-4-[3-(trifluoromethyl)pyrazol-1-yl]-9H-pyrido[2,3-b]indol-3-yl]-N-methyl-pyridine-3-carboxamide]?
**A.** IC50 [1]: 0.796 µM; IC50 [2]: ≤ 0.098 µM; CC50 at 3 days [3]: 11100 nM

**Q.** With `CCNc1cc(F)c(F)c2c1[nH]c1ncc(-c3cncc(C#N)c3)c(-n3ccc(C(F)(F)F)n3)c12` [Example 1.28, 5-[8-(Ethylamino)-5,6-difluoro-4-[3-(trifluoromethyl)pyrazol-1-yl]-9H-pyrido[2,3-b]indol-3-yl]pyridine-3-carbonitrile] as the compound, how does the IC50 [1] read?
**A.** 0.8 µM

**Q.** And the IC50 [2]?
**A.** 0.199 µM

**Q.** And the MIC [4]?
**A.** 0.7 µg/mL (≈ 1.45 µM)

**Q.** Which results are given for `CCNc1cc(F)cc2c1[nH]c1ncc(-c3cncc(C(N)=O)c3)c(-n3ccc(C(F)(F)F)n3)c12` [Example 1.15, 5-[8-(Ethylamino)-6-fluoro-4-[3-(trifluoromethyl)pyrazol-1-yl]-9H-pyrido[2,3-b]indol-3-yl]pyridine-3-carboxamide]?
**A.** IC50 [1]: 0.289 µM; IC50 [2]: ≤ 0.098 µM; MIC [4]: 0.142 µg/mL (≈ 0.294 µM)

**Q.** For `CNc1cc(F)cc2c1[nH]c1ncc(-c3cnc(OC)nc3)c(-n3nc(C#N)c4c3CNC4)c12` [Example 1.38, 1-[6-Fluoro-3-(2-methoxypyrimidin-5-yl)-8-(methylamino)-9H-pyrido[2,3-b]indol-4-yl]-5,6-dihydro-4H-pyrrolo[3,4-c]pyrazole-3-carbonitrile], which CC50 at 3 days [3] is on record?
**A.** 11000 nM

**Q.** For `CCNc1cc(F)cc2c1[nH]c1ncc(-c3cnc([C@H](C)O)nc3)c(-n3ccc(C(F)(F)F)n3)c12` [Example 1.57, (1S)-1-[5-[8-(ethylamino)-6-fluoro-4-[3-(trifluoromethyl)pyrazol-1-yl]-9H-pyrido[2,3-b]indol-3-yl]pyrimidin-2-yl]ethanol], which IC50 [1] is on record?
**A.** 0.631 µM

**Q.** What about the IC50 [2] of the same compound?
**A.** ≤ 0.098 µM

**Q.** What about the MIC [4] of the same compound?
**A.** 0.284 µg/mL (≈ 0.585 µM)

**Q.** For `CNc1cc(F)cc2c1[nH]c1ncc(-c3cncc(C#N)c3)c(-n3cc(CN)c(C(F)(F)F)n3)c12` [Example 1.14, 5-[4-[4-(Aminomethyl)-3-(trifluoromethyl)pyrazol-1-yl]-6-fluoro-8-(methylamino)-9H-pyrido[2,3-b]indol-3-yl]pyridine-3-carbonitrile], which CC50 at 3 days [3] is on record?
**A.** 13300 nM

**Q.** With `CCNc1cc(F)cc2c1[nH]c1ncc(-c3cnc(N)nc3)c(-n3ccc(C(F)(F)F)n3)c12` [Example 1.06, 3-(2-Aminopyrimidin-5-yl)-N-ethyl-6-fluoro-4-[3-(trifluoromethyl)pyrazol-1-yl]-9H-pyrido[2,3-b]indol-8-amine] as the compound, how does the IC50 [1] read?
**A.** 0.495 µM

**Q.** And the IC50 [2]?
**A.** ≤ 0.098 µM

**Q.** And the MIC [4]?
**A.** 0.267 µg/mL (≈ 0.585 µM)

**Q.** For `CCNc1cc(F)cc2c1[nH]c1ncc(-c3cncc(C#N)c3)c(-n3ccc(C#N)n3)c12` [Example 1.05, 5-[4-(3-Cyanopyrazol-1-yl)-8-(ethylamino)-6-fluoro-9H-pyrido[2,3-b]indol-3-yl]pyridine-3-carbonitrile], which IC50 [1] is on record?
**A.** 0.701 µM

**Q.** What about the IC50 [2] of the same compound?
**A.** ≤ 0.098 µM

**Q.** And the MIC [4]?
**A.** 0.314 µg/mL (≈ 0.743 µM)
